{"source": "ChEMBL document CHEMBL1201862", "about": "“PubChem BioAssay data set” (2004)", "key": {"Cytochrome P450 2D6": {"target": "Cytochrome P450 2D6 (Homo sapiens, UniProt P10635)", "sequence (P10635 whole entry)": "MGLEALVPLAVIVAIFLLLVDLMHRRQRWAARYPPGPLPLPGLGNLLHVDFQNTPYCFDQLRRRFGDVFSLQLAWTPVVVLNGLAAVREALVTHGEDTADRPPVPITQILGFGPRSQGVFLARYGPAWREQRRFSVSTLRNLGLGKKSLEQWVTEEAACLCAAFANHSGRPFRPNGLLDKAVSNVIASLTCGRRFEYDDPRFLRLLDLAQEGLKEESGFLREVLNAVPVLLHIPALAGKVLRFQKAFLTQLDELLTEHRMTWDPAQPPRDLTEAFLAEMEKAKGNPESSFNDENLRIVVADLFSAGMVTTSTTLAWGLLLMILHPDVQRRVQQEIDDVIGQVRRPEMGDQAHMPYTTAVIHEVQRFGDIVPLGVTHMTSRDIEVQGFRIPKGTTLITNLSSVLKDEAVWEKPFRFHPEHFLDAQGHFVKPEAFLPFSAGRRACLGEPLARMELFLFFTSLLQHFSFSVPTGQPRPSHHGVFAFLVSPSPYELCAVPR"}, "[1]": {"assay": "Luminescence Cell-Based Dose Response HTS to Identify Activators of Luciferase Translation or Activity in H4 […] Cells. [Related pubchem assays: 1829 (Project Summary), 1814 (Primary HTS)]", "type": "functional"}, "H4": {"test_system": "H4", "assay": "Luminescence Cell-Based Dose Response HTS to Identify Activators of 5'UTR Stem-Loop Driven Prion Protein mRNA Translation in H4 Neuroglioblastoma Cells. [Related pubchem assays: 1829 (Project Summary), 1814 (Primary HTS)]", "type": "functional", "conditions": "Homo sapiens"}, "Paired box protein Pax-8": {"target": "Paired box protein Pax-8 (Homo sapiens, UniProt Q06710)", "sequence (Q06710 whole entry)": "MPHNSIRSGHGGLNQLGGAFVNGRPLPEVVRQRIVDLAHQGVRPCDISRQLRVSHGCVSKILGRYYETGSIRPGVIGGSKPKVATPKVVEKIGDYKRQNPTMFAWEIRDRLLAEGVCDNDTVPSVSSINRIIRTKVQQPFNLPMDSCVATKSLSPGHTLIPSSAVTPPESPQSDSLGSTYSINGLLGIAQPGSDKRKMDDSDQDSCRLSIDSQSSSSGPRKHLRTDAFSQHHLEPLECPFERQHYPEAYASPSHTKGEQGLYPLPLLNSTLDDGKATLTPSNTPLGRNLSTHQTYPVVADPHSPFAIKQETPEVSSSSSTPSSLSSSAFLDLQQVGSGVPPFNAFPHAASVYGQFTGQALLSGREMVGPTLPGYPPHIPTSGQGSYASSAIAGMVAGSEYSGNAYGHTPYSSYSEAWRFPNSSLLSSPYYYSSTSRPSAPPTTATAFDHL", "assay": "inhibitors of PAX8-driven TPO luciferase reporter, dose response, RMG-I cells, cherry-pick (AID 687027);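 note: luciferase reporter driven by Pax8 target thyroperoxidase promoter measured by SteadyGlo luminescence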", "type": "functional, cell-based"}, "Cytochrome P450 2C9": {"target": "Cytochrome P450 2C9 (Homo sapiens, UniProt P11712)", "sequence (P11712 whole entry)": "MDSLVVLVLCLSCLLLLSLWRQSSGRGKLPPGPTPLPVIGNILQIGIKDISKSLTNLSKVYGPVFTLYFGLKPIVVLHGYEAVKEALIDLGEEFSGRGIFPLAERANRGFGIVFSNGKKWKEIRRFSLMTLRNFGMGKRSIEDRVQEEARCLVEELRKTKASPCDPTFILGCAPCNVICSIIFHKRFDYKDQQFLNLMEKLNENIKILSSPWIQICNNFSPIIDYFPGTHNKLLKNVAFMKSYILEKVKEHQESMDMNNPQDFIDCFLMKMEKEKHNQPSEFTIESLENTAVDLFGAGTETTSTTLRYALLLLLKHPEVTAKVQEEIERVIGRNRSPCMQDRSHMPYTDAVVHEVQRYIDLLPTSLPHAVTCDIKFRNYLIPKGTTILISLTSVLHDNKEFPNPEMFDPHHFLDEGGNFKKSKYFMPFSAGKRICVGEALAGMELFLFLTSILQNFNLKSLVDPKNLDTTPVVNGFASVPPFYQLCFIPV"}, "Cytochrome P450 2C19": {"target": "Cytochrome P450 2C19 (Homo sapiens, UniProt P33261)", "sequence (P33261 whole entry)": "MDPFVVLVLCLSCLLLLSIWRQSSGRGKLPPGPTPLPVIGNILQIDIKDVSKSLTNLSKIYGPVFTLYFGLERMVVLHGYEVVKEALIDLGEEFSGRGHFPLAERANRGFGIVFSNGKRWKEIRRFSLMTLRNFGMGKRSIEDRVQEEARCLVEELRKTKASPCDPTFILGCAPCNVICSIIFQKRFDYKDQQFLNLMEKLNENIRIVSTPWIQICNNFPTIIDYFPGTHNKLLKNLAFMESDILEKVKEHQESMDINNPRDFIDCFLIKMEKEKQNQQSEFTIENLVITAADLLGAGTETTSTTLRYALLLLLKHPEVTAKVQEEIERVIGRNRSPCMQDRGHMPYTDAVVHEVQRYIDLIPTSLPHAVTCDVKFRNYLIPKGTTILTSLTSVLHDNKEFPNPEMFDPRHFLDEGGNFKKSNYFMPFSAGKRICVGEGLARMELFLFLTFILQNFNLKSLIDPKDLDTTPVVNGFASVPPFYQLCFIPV", "assay": "Cytochrome panel assay with activity outcomes. Panel member name: p450-cyp2c19 Compounds with AC50 equal or less than 10 uM are considered active", "type": "functional", "conditions": "read-out: AC50"}, "Cytochrome P450 3A4": {"target": "Cytochrome P450 3A4 (Homo sapiens, UniProt P08684)", "sequence (P08684 whole entry)": "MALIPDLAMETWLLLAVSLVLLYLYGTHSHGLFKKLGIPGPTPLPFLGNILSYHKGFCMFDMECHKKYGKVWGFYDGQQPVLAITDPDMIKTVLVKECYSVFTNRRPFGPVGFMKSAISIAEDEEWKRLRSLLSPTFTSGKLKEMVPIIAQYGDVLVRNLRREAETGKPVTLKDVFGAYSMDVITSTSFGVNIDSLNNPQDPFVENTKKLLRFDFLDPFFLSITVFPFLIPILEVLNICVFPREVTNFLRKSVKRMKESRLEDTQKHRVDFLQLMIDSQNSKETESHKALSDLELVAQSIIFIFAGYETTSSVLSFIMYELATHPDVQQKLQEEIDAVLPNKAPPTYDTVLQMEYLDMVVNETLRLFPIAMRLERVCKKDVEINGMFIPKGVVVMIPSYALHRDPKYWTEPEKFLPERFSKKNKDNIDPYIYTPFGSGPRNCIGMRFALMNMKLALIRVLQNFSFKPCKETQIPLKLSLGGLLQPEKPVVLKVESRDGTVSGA"}, "Cytochrome P450 1A2": {"target": "T1, Cytochrome P450 1A2 (Homo sapiens, UniProt P05177)", "T1 sequence (P05177 whole entry)": "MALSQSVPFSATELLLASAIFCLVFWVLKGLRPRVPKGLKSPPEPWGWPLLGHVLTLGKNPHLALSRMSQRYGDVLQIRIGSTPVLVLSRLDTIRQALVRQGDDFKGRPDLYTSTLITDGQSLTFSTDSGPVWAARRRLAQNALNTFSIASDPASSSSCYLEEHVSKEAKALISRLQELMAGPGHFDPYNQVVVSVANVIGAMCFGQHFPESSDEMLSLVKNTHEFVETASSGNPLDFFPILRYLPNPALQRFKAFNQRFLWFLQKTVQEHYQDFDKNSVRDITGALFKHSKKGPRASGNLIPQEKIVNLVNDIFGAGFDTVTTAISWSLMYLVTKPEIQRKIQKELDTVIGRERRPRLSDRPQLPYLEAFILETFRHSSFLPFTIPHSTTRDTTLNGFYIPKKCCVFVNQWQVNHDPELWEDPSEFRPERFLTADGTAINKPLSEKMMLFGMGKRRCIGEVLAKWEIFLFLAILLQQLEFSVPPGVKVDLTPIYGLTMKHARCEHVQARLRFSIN"}}, "note": "The source made the active and inactive calls.", "data": [{"molecule": "COC(=O)[C@@]1(Cc2ccc(OC)cc2)[C@H]2c3cc(C(=O)N4CCCC4)n(CCc4ccc(O)c(OC)c4)c3C[C@H]2CN1C(=O)c1ccccc1", "values": [{"measurement": "AC50", "setting": "Cytochrome P450 2D6", "value": "39.8 µM (inconclusive)"}]}, {"molecule": "[O-][n+]1onc2c3ccnnc3ccc21", "values": [{"measurement": "EC50", "setting": "[1]", "value": "1.93 µM (active)"}, {"measurement": "EC50", "setting": "H4", "value": "> 120 µM (not active)"}]}, {"molecule": "COc1cc(OC)c2c(-c3cccc(-c4ccc(OC)c(F)c4)c3)cc(=O)oc2c1", "values": [{"measurement": "AC50", "setting": "Paired box protein Pax-8", "value": "1.08 µM (active)"}]}, {"molecule": "Cc1ccc(S(=O)(=O)Nc2ccc3c(c2)C(=O)N([C@@H](C)CO)C[C@@H](C)[C@@H](CN(C)Cc2ccc(C(F)(F)F)cc2)OCCCC[C@@H](C)O3)cc1", "values": [{"measurement": "AC50", "setting": "Paired box protein Pax-8", "value": "13.3 µM (active)"}]}, {"molecule": "CC(C)C(=O)NCCCc1ccccc1", "values": [{"measurement": "AC50", "setting": "Cytochrome P450 2D6", "value": "20 µM (inconclusive)"}, {"measurement": "AC50", "setting": "Cytochrome P450 2C9", "value": "5.62 µM (inconclusive)"}]}, {"molecule": "COc1ccc(S(=O)(=O)Nc2ccc3c(c2)CC(=O)N([C@H](C)CO)C[C@H](C)[C@@H](CN(C)Cc2ccc(Cl)c(Cl)c2)O3)cc1", "values": [{"measurement": "AC50", "setting": "Paired box protein Pax-8", "value": "16.2 µM (active)"}]}, {"molecule": "C1=Cc2ccccc2C1.C=C(C)c1ccccc1.[N-]=[N+]=Nc1ccccc1", "values": [{"measurement": "AC50", "setting": "Cytochrome P450 2C19", "value": "3.16 µM (inconclusive)"}, {"measurement": "AC50", "setting": "Cytochrome P450 2D6", "value": "3.98 µM (inconclusive)"}]}, {"molecule": "COC(=O)[C@@]1(Cc2ccc(F)cc2)[C@H]2c3cc(C(=O)N(C)C)n(Cc4cc(C)n(C)n4)c3C[C@H]2CN1C(=O)c1ccccc1", "values": [{"measurement": "AC50", "setting": "Cytochrome P450 2C19", "value": "39.8 µM (inconclusive)"}, {"measurement": "AC50", "setting": "Cytochrome P450 2D6", "value": "39.8 µM (inconclusive)"}]}, {"molecule": "O=C(CN1CCN(c2ccc(Cl)cc2)CC1)Nc1cccc(F)c1", "values": [{"measurement": "AC50", "setting": "Cytochrome P450 2D6", "value": "1.41 µM (inconclusive)"}, {"measurement": "AC50", "setting": "Cytochrome P450 3A4", "value": "25.1 µM (inconclusive)"}]}, {"molecule": "CCCCn1nc(C(=O)Nc2cc(C(F)(F)F)ccc2N2CCOCC2)ccc1=O", "values": [{"measurement": "AC50", "setting": "Paired box protein Pax-8", "value": "4.7 µM (active)"}]}, {"molecule": "CC(=O)O[C@@H]1CN2CCC1CC2", "note": "[(S)-ACECLIDINE]", "values": [{"measurement": "AC50", "setting": "Cytochrome P450 2D6", "value": "15.8 µM (inconclusive)"}]}, {"molecule": "Cc1cccc(Nc2nc3c(s2)CCCC3)c1", "values": [{"measurement": "EC50", "setting": "[1]", "value": "2.59 µM (active)"}, {"measurement": "EC50", "setting": "H4", "value": "3.41 µM (active)"}]}, {"molecule": "CCOc1ccc(C(CN2CCOCC2)C(C)=O)cc1OC", "note": "(stereo unspecified)", "values": [{"measurement": "AC50", "setting": "Paired box protein Pax-8", "value": "1.68 µM (active)"}]}, {"molecule": "Clc1ccc(COc2ccccn2)cc1Cl", "values": [{"measurement": "AC50", "setting": "Cytochrome P450 2D6", "value": "11.2 µM (inconclusive)"}]}, {"molecule": "COC(=O)[C@@]1(Cc2ccc(F)cc2)[C@H]2c3cc(C(=O)N(C)C)n(Cc4ccc(Cl)c(C(F)(F)F)c4)c3C[C@H]2CN1C(=O)c1ccccc1", "values": [{"measurement": "AC50", "setting": "Cytochrome P450 2C19", "value": "5.01 µM (inconclusive)"}, {"measurement": "AC50", "setting": "Cytochrome P450 2D6", "value": "6.31 µM (inconclusive)"}, {"measurement": "AC50", "setting": "Cytochrome P450 1A2", "value": "15.8 µM (inconclusive)"}]}, {"molecule": "COc1ccc2[nH]c(-c3ccccc3)c(CCNC(C)=O)c2c1", "values": [{"measurement": "AC50", "setting": "Cytochrome P450 2D6", "value": "25.1 µM (inconclusive)"}]}, {"molecule": "O=C(NCc1ccc2c(c1)OCO2)C1CC(=O)N(C2CCCC2)C1", "note": "(stereo unspecified)", "values": [{"measurement": "AC50", "setting": "Cytochrome P450 2C19", "value": "35.5 µM (inconclusive)"}, {"measurement": "AC50", "setting": "Cytochrome P450 2D6", "value": "12.6 µM (inconclusive)"}, {"measurement": "AC50", "setting": "Cytochrome P450 1A2", "value": "17.8 µM (inconclusive)"}]}, {"molecule": "COc1ccc(NC(=O)CSc2nnc(CNC(=O)c3ccco3)n2-c2ccccc2OC)cc1", "values": [{"measurement": "AC50", "setting": "Cytochrome P450 2C19", "value": "3.98 µM (inconclusive)"}, {"measurement": "AC50", "setting": "Cytochrome P450 2D6", "value": "35.5 µM (inconclusive)"}, {"measurement": "AC50", "setting": "Cytochrome P450 3A4", "value": "39.8 µM (inconclusive)"}, {"measurement": "AC50", "setting": "Cytochrome P450 2C9", "value": "5.01 µM (inconclusive)"}]}]}
